# Measured values: patent EP1596818B1, “COSMETIC COMPOSITION WITH A WHITENING EFFECT, METHOD FOR THE PRODUCTION AND USE THEREOF” (Riemschneider, Randolph, Dr. Dr. Prof., priority 2003, dated 2004)
# Like-named read-outs stand apart in the source and are kept apart here.
# Experiments:
# [1] = system: B16-Melanom-Zellen von Mäusen; experiment: B16 melanoma cell test for whitening effect (inhibition of melanin production); type: cell-based; conditions: for Anzahl der Zellen: lyophilisate from aqueous phase of the hand cream, 6 days culture
# Procedure: (§1) Nach Zerstörung der Emulsion der Handcreme durch Wasserzusatz und Erhitzen auf 80 °C wurde die wässrige Phase abgetrennt, im Vakuum eingeengt und der Zentrifugenrückstand wurde gefriergetrocknet.
# (§2) Definierte Mengen des dabei erhaltenen Lyophilisats wurden in entionisiertem Wasser gelöst und nach den Angaben in dem weiter unten beschriebenen Testverfahren behandelt. Tabelle 1
# (§3) Die grobe Beurteilung der Whitening-Effekte wurde vorgenommen nach der Abtrennung der Zellen unter Verwendung von 6 ml EDTA-Lösung und Auszählen der Zellen, z.B. Tabelle 1 und Tabelle 3 (Beurteilungskriterien auf S. 15).
# (§4) • 1. Herstellung und Sterilisierung eines Test-Kulturmediums • 2. Herstellung einer Zellenflotationslösung • 3. Einstellung des pH-Wertes des Kulturmediums • 4. Ausstreichen des Kulturmediums auf einer Petrischale • 5. Einimpfen von B16-Melanom-Zellen von Mäusen • 6. […] Auswechseln des Kulturmediums am 3. Tag • 8.
# [2] = as above; type: cell-based, Mäusen; conditions: mouse, b16 melanoma cells, cell number relative to control (1,00), read-out: Relativwert
# Procedure: as §1, §2, §3, §4
# [3] = Preclinical test of local tolerability
# Source text: Zusammenfassung: der Wirkstoff Methyl-ADAPD ist im Patch-Test auf allergisierendes Potenzial geprüft worden. In einer präklinischen Prüfung wurde die lokale Verträglichkeit abgeklärt.
# Tyrosinase = Tyrosinase inhibitor rate; type: biochemical
# [4] = Wirkstoff-Gehalt 1,25 mg/ml Lösung
# [5] = Wirkstoff-Gehalt 2,5 mg/ml Lösung
smiles,measurement,setting,value
CC(=O)C1C(=O)C=C(C)OC1=O (stereo not drawn) [Methyl-ADAPD],Whitening-Effekt,[1]; [4],+
same,Anzahl der Zellen,[1]; [4],82x10^4
same,Whitening-Effekt,[1]; [5],+++
same,Anzahl der Zellen,[1]; [5],79x10^4
same,viability at 144 h,[2]; [4],92%
same,viability at 144 h,[2]; [5],86%
same,lokale Verträglichkeit,[3],keine Bedenken
same,Tyrosinase-Inhibitorrate,"Tyrosinase; Wirkstoff-Gehalt 0,5 mg/ml Lösung",84%
same,Tyrosinase-Inhibitorrate,Tyrosinase; Wirkstoff-Gehalt 5 mg/ml Lösung,"99,1%"
